Data published in patent publication US11364390B2, “Apparatus for treating pathological cells” (priority 2017, dated 2022).

Experiments:
[1] = test system: nephroblastoma cells G401; assay: Cell viability assay (live cell count) on cultured nephroblastoma cells G401; type: cell-based; conditions: cisplatin 500 nM once a day, combination with electromagnetic field 2 hours a day, FIG. 5
Procedure: Cell Lines and Methods of Culture: Nephroblastoma cells G401, adherent cells, were cultured in McCoy's medium with 10% fetal bovine serum at 37° C. in an incubator containing 5% carbon dioxide and saturated water vapor. Cell viability assay: […] cells were seeded into 6-well plates at a density of 1×10^5 cells/well. […] Statistical Analysis: Each irradiation conditions repeated three times, each three holes, the results were mean±standard error, the results do T test, with P<0.05 as a significant difference in indicators.

[2] = test system: neuroblastoma cells CHLA255; assay: Cell viability assay (live cell count) on cultured neuroblastoma cells CHLA255; type: cell-based; conditions: cisplatin 500 nM once a day, combination with electromagnetic field 2 hours a day, FIG. 6
Procedure: Cell Lines and Methods of Culture: Neuroblastoma cells, CHLA255, which are adherent cells, are grown in 37° C. incubator with 10% fetal calf serum in McCoy's medium containing 5% carbon dioxide and saturated water vapor. Cell viability assay: Neuroblastoma cells, CHLA255, were seeded in 6-well plates at a density of 1×10^5 cells/well. […] Statistical Analysis: Each irradiation conditions repeated three times, each three holes, the results were mean±standard error, the results do T test, with P<0.05 as a significant difference in indicators.

Nephroblastoma G401 = assay: Tumor growth inhibition in vivo, G401 nephroblastoma model in nude mice; conditions: cisplatin 20 mg/kg three times a week, irradiation about 90 minutes a day, P<0.05, FIG. 9
Excerpt: Example 7: G401 nephroblastoma model was established in nude mice and the animals were randomly divided into 4 groups with 8 mice in each group. […] Tumor models were established: Male nude mice were infants aged 3-4 weeks old. Nephroblastoma G401 was inoculated into the axilla and the number was 5×10^6/volume. The volume was 200 microliters. After one week of inoculation, the tumor could be touched. The animals were randomized groups, control group, irradiation group, cisplatin group, combined groups, treated separately. […] The control animals were placed in the animals irradiated with electromagnetic field-free coils for 90 minutes every day, and injected intraperitoneally with the same volume of physiology Saline; all animals were sacrificed 3 days after the neck, the eyeball to take whole blood, EDTA anticoagulant, after centrifugation to take the biochemical indicators of blood plasma, remove underarm growth tumor, weighed tumor weight, tissue cryopreservation. Statistical analysis: Each group of 8 animals, the results were mean±standard deviation, the results of T test, P<0.05 as a significant difference in indicators.

SMILES: N.N.[Cl][Pt][Cl] [cisplatin]
- cell inhibition rate [1]: increase
- cell proliferation (number of cells) [1]: slow proliferation
- cell inhibition rate [2]: increase
- cell proliferation (number of cells) [2]: slow proliferation
- tumor weight compared with the control group (Nephroblastoma G401): no significant difference
